Measured values published in patent US10093654B2, “Therapeutically active compounds and their methods of use” (Agios Pharmaceuticals, Inc., priority 2013, dated 2018).

Experiments:
CYP 2D6 = CYP 2D6 (Homo sapiens, UniProt P10635); assay: Direct inhibition of CYP 2D6; assay type: in vitro ADME
[1] = system: advanced hematologic malignancies that harbor an IDH2 mutation; assay: Phase 1 clinical study, clinical activity (response to treatment); assay type: in vivo, human
Experimental: Subjects will have the extent of their disease assessed, including bone marrow biopsies and/or aspirates and peripheral blood, at screening, on Day 15, Day 29 and Day 57, and every 56 days thereafter while on study drug treatment, independent of dose delays and/or dose interruptions, and/or at any time when progression of disease is suspected. Response to treatment is determined by the Investigators based on modified International Working Group (IWG) response criteria for acute myelogenous leukemia (AML).
Serial blood and bone marrow sampling is evaluated during the clinical study to determine response to treatment based on modified IWG response criteria in AML.
Disease response to treatment is assessed through the evaluation of bone marrow aspirates and biopsies, along with complete blood counts and examination of peripheral blood films. Subjects have the extent of their disease assessed and recorded at screening, on Days 15, 29, and 57, every 56 days thereafter while on study drug treatment, independent of dose-delays and/or dose interruptions, and/or at any time when progression of disease is suspected. An assessment also is conducted at the End of Treatment visit for subjects who discontinue the study due to reasons other than disease progression.
Bone marrow aspirates and biopsies are to be obtained at screening, Day 15, Day 29, Day 57, every 56 days thereafter independent of dose delays and/or interruptions, at any time when progression of disease is suspected, and at the End of Treatment visit. Bone marrow aspirates and core sampling should be performed according to standard of care and analyzed at the local site's laboratory in accordance with the International Council for Standardization in Hematology (ICSH) Guidelines (Lee S H, et al. Int J Lab Hematol. 2008; 30(5):349-64). Bone marrow core biopsies and aspirate are to be evaluated for morphology, flow cytometry, and for karyotype to assess potential clinical activity. Aliquots of the bone marrow and/or peripheral blood blast cells also are evaluated at central laboratories for 2-HG levels, gene expression profiles, histone and DNA methylation patterns, and metabolomic profiling. Peripheral blood for the evaluation of leukemic blast cells is to be obtained at screening, Day 15, Day 29, Day 57, every 56 days thereafter independent of dose delays and/or interruptions, at any time when progression of disease is suspected, and at the End of Treatment visit. Cell counts and flow cytometry are used to assess the state of differentiation of blast cells collected from bone marrow and peripheral blood. Side scatter also is analyzed to determine the complexity of the blast cells in response to compound 1.
The following criteria outlined in Table 5 and Table 6 are used to assess response to treatment.

Chain of CYP 2D6 (P10635 whole entry): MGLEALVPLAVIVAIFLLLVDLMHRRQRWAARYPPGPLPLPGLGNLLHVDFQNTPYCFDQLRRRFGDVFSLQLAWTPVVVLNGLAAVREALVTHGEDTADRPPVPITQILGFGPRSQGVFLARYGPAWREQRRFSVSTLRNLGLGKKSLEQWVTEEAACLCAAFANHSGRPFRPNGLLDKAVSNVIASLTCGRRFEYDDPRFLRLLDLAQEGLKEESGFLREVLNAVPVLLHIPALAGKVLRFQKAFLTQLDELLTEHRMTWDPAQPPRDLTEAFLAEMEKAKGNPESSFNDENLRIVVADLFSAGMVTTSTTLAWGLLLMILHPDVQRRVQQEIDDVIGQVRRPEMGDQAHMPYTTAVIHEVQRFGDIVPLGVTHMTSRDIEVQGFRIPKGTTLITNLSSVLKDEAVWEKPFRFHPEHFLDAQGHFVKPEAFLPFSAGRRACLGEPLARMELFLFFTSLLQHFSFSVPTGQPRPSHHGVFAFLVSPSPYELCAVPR

For “2-Methyl-1-[(4-[6-(trifluoromethyl)pyridin-2-yl]-6-{[2-(trifluoromethyl)pyridin-4-yl]amino}-1,3,5-triazin-2-yl)amino]propan-2-ol methanesulfonate [compound 1]”, the IC50 (CYP 2D6) was 21 µM, the “Response (Cycle)” value ([1]; Table 4, Cohort 1, 30 mg orally twice daily, per AML patient) was “CRp” and the “Response (Cycle)” value ([1]; Table 4, Cohort 2, 50 mg orally twice daily, per AML patient) was “CRp”. The “Response (Cycle)” value ([1]; Table 7, Cohort 1, 30 mg orally twice daily, per patient) was “CRp”, the “Response (Cycle)” value ([1]; Table 7, Cohort 2, 50 mg orally twice daily, per patient) was “Cri” and the “Response (Cycle)” value ([1]; Table 7, Cohort 5, 100 mg orally twice daily, per patient) was “CRp”. The neutrophil counts ([1]; by cycle 1 day 15) was “increase”, the “white blood cell counts and neutrophil counts” value ([1]; by cycle 2 day 15 in patients with a response) was “in normal range” and the “patients with progressive disease” value ([1]; of a total 35 patients) was 6. For the same substance, the “patients with stable disease” value ([1]; of a total 35 patients) was 5.
